Experimental data as given in patent publication US20250154169A1, “COMPOUNDS AND METHODS FOR MODULATING SPLICING” (REMIX THERAPEUTICS INC., priority 2021, published 2025).
Several values for one entry are separate records, joined by “and”; a condition that tells them apart may be missing. Identical values can stand only once. Counter-ions that a name gives are not always drawn. Like-named read-outs stand apart in the source and are kept apart here.

Legend:
MYB = experiment: Protein abundance, HiBit-assay system (Promega), MYB; type: cell-based; details: Table 6; HiBiT-modified K562 cells, 24 hours
Description: In some embodiments, a compound of Formula (I) or (II) or a pharmaceutically acceptable salt thereof, e.g., as described herein, modulates the expression of a target protein (e.g., HTT or MYB) in a reference cell or sample. In an embodiment, a compound of Formula (I) or (II) or a pharmaceutically acceptable salt thereof, e.g., as described herein, increases the expression of a target protein (e.g., HTT or MYB) in a reference cell or sample. In an embodiment, a compound of Formula (I) or (II) or a pharmaceutically acceptable salt thereof, e.g., as described herein, decreases the expression of a target protein (e.g., HTT or MYB) in a reference cell or sample. The effect of an exemplary compound of Formula (I) or (II) on protein abundance may be measured using a standard assay for measuring protein abundance, such as the HiBit-assay system (Promega). In this assay, percent response for each respective cell line may be as calculated at each compound concentration as follows: % response=100*(S−PC)/(NC−PC). For the normalized response at each concentration, a four-parameter logistical regression may be fit to the data and the response may be interpolated at the 50% value to determine a concentration for protein abundance at 50% (IC50) an untreated control. In an embodiment, a compound of Formula (I) or (II) or a pharmaceutically acceptable salt thereof, e.g., as described herein, has a protein abundance response less than 100 nM. In an embodiment, a compound of Formula (I) or (II) or a pharmaceutically acceptable salt thereof, e.g., as described herein, has a protein abundance response between 100-1000 nM. In an embodiment, a compound of Formula (I) or (II) or a pharmaceutically acceptable salt thereof, e.g., as described herein, has a protein abundance response greater than 1000 nM. In an embodiment, a compound of Formula (I) or (II) or a pharmaceutically acceptable salt thereof, e.g., as described herein, has a protein abundance response greater than 10 uM. In an embodiment, a compound of Formula (I) or (II) or a pharmaceutically acceptable salt thereof, e.g., as described herein, modulates the protein abundance of a target protein by about 1%, 5%, 10%, 15%, 20%, 25%, 30%, 35%, 40%, 45%, 50%, 55%, 60%, 65%, 70%, 75%, 80%, 85%, 90%, 95%, 99% or more, e.g., compared with a reference compound.

HTT mRNA = experiment: Splicing RT-qPCR assay, HTT canonical (CJ) and alternative (AJ) junction mRNA; type: cell-based, human; details: Homo sapiens, A673 or K562 cells, 24 hours compound treatment; for IC50: read-out: HTT CJ (IC50, decrease in canonical junction mRNA); for AC50: read-out: HTT AJ (AC50, increase in alternative junction mRNA)
Method in brief: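 A673 or K562 cells were treated 24 h at 37 °C with an 11-point 3-fold compound dilution series (top 10 uM, DMSO ≤0.25%). Lysates went to one-step RT-qPCR measuring canonical (CJ) and alternative-exon (AJ) junction transcripts, normalized to GAPDH, GUSB or PPIA.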

| IC50 (MYB) | IC50 (HTT mRNA; 24 h) [nM] | SMILES | AC50 (HTT mRNA) [nM] | IC50 (HTT mRNA) [nM] |
| --- | --- | --- | --- | --- |
| < 100 nM |  | Cc1cn2nc(NC(=O)c3ccc(C4CCNCC4)c4cc(C)oc34)cc(C)c2n1 [Compound 118] |  |  |
| 1000 to 10000 nM | 1000 to 10000 | Cc1cn2nc(NC(=O)c3ccc(C4CCNCC4)c4ccoc34)cc(C)c2n1 [Compound 119] | > 10000 |  |
| 1000 to 10000 nM |  | Cc1cn2cc(NC(=O)c3ccc(N4CCNCC4)c4nc(C)oc34)cc(F)c2n1 [Compound 140] |  |  |
| 100 to 1000 nM | < 100 | Cc1cn2cc(NC(=O)c3ccc(N4CCNCC4)c4oc(C)nc34)cc(F)c2n1 [Compound 141] | < 100 |  |
| < 100 nM | 1000 to 10000 | Cc1cn2cc(NC(=O)c3ccc(N4CCNCC4)c4cc(C)oc34)cc(F)c2n1 [Compound 142] | 1000 to 10000 |  |
| < 100 nM |  | Cc1cn2cc(NC(=O)c3ccc(N4CCNCC4)c4cn(C)nc34)cc(F)c2n1 [Compound 143, N-{8-fluoro-2-methylimidazo[1,2-a]pyridin-6-yl}-2-methyl-4-(piperazin-1-yl) indazole-7-carboxamide] |  |  |
| < 100 nM | 1000 to 10000 | Cc1cn2cc(NC(=O)c3ccc(C4CCNCC4)c4cc(C)oc34)cc(F)c2n1 [Compound 145] | 1000 to 10000 |  |
| 1000 to 10000 nM | 1000 to 10000 | Cc1cn2nc(NC(=O)c3ccc(N4CCNCC4)c4cc(C)oc34)cc(C)c2n1 [Compound 148] | 1000 to 10000 |  |
| < 100 nM | 1000 to 10000 | Cc1cn2cc(NC(=O)c3ccc(C4CCNCC4)c4ccoc34)cc(F)c2n1 [Compound 149] | 1000 to 10000 |  |
| 100 to 1000 nM | 1000 to 10000 | Cc1cn2cc(NC(=O)c3ccc(N4CCN(C)CC4)c4cc(C)oc34)cc(F)c2n1 [Compound 189] | 1000 to 10000 |  |
| < 100 nM | 100 to 1000 | Cc1cn2cc(NC(=O)c3ccc(N4CCNC(C)C4)c4cc(C)oc34)cc(F)c2n1 (stereo not shown) [Compound 190] | 100 to 1000 |  |
| < 100 nM and 100 to 1000 nM | 100 to 1000 | Cc1cn2cc(NC(=O)c3ccc(N4CCN(C)C(C)C4)c4cc(C)oc34)cc(F)c2n1 (stereo not shown) [Compound 191] | 1000 to 10000 |  |
| 100 to 1000 nM | 1000 to 10000 | CCC1CN(c2ccc(C(=O)Nc3cc(F)c4nc(C)cn4c3)c3oc(C)cc23)CCN1 (stereo not shown) [Compound 192] | 1000 to 10000 |  |
| 100 to 1000 nM | 1000 to 10000 | Cc1cn2cc(NC(=O)c3ccc(N4CCNC(C)(C)C4)c4cc(C)oc34)cc(F)c2n1 [Compound 193] | 1000 to 10000 |  |
| 100 to 1000 nM |  | Cc1cn2cc(NC(=O)c3ccc(N4CCNC5(CC5)C4)c4cc(C)oc34)cc(F)c2n1 [Compound 194] |  |  |
| 1000 to 10000 nM | > 10000 | Cc1cn2cc(NC(=O)c3ccc(N4CC(C)(C)NC(C)(C)C4)c4cc(C)oc34)cc(F)c2n1 [Compound 195] | > 10000 |  |

| IC50 (MYB) | IC50 (HTT mRNA; 24 h) [nM] | SMILES | AC50 (HTT mRNA) [nM] | IC50 (HTT mRNA) [nM] |
| --- | --- | --- | --- | --- |
| < 100 nM |  | CCNC1CCN(c2ccc(C(=O)Nc3cc(F)c4nc(C)cn4c3)c3oc(C)cc23)CC1 [Compound 196] |  |  |
| 1000 to 10000 nM | > 10000 | Cc1cn2cc(NC(=O)c3ccc(N4CCC(NC(C)(C)C)CC4)c4cc(C)oc34)cc(F)c2n1 [Compound 197] | > 10000 |  |
| < 100 nM |  | CC1=CC2C(N3CCC(N(C)C)CC3)=CC=C(C(=O)Nc3cc(F)c4nc(C)cn4c3)C2O1 (stereo not shown) [Compound 198] |  |  |
| < 100 nM | 100 to 1000 | Cc1cn2cc(NC(=O)c3ccc(N4CCN5CCCC5C4)c4cc(C)oc34)cc(F)c2n1 (stereo not shown) [Compound 199] | 100 to 1000 |  |
| < 100 nM |  | Cc1cn2cc(NC(=O)c3ccc(C4CCNCC4)c4cn(C)nc34)cc(F)c2n1 [Compound 208] |  |  |
| > 10000 nM | > 10000 | Cc1cc2c(N3CCNCC3)ccc(C(=O)Nc3cc(F)c4cn(C)nc4c3)c2o1 [Compound 217] | > 10000 |  |
| 1000 to 10000 nM | > 10000 | CCn1cc2c(N3CC[C@@H](NC)C3)ccc(C(=O)Nc3cc(Cl)c4nc(C)cn4c3)c2n1 [Compound 556, N-{8-chloro-2-methylimidazo[1,2-a]pyridin-6-yl}-2-ethyl-4-[(3R)-3-(methylamino)pyrrolidin-1-yl]indazole-7-carboxamide] | > 10000 |  |
| < 100 nM | 100 to 1000 | CCn1cc2c(N3CCC(N)(CC)CC3)cc(F)c(C(=O)Nc3cc(F)c4nc(C)cn4c3)c2n1 [Compound 557, 4-(4-amino-4-ethylpiperidin-1-yl)-2-ethyl-6-fluoro-N-{8-fluoro-2-methylimidazo[1,2-a]pyridin-6-yl}indazole-7-carboxamide] | 100 to 1000 |  |
| < 100 nM | 1000 to 10000 | CCn1cc2c(N3CCC(N[C@H]4C[C@@H](O)C4)CC3)ccc(C(=O)Nc3cc(F)c4nc(C)cn4c3)c2n1 [Compound 559, 2-ethyl-N-{8-fluoro-2-methylimidazo[1,2-a]pyridin-6-yl}-4-(4-{[(1s,3s)-3-hydroxycyclobutyl]amino}piperidin-1-yl) indazole-7-carboxamide] | 1000 to 10000 |  |
| < 100 nM | 1000 to 10000 | CCn1cc2c(N3CCC(N[C@H]4C[C@H](O)C4)CC3)ccc(C(=O)Nc3cc(F)c4nc(C)cn4c3)c2n1 [Compound 560, 2-ethyl-N-{8-fluoro-2-methylimidazo[1,2-a]pyridin-6-yl}-4-(4-{[(1r,3r)-3-hydroxycyclobutyl]amino}piperidin-1-yl) indazole-7-carboxamide] | 1000 to 10000 |  |
| > 10000 nM | > 10000 | Cc1cn2cc(NC(=O)c3ccc(N4CC[C@@H](N5CCNCC5)C4)c4cn(C)nc34)cc(F)c2n1 [Compound 562, N-{8-fluoro-2-methylimidazo[1,2-a]pyridin-6-yl}-2-methyl-4-[(3R)-3-(piperazin-1-yl)pyrrolidin-1-yl]indazole-7-carboxamide hydrochloride] | > 10000 |  |
| 1000 to 10000 nM | > 10000 | CCn1cc2c(N3CCNCC3)ccc(C(=O)Nc3cc(F)c4nc(C)c(F)n4c3)c2n1 [Compound 565, N-{3,8-difluoro-2-methylimidazo[1,2-a]pyridin-6-yl}-2-ethyl-4-(piperazin-1-yl) indazole-7-carboxamide; trifluoroacetic acid] | > 10000 |  |
| 100 to 1000 nM | 1000 to 10000 | CCn1cc2c(N3CCNCC3)ccc(C(=O)Nc3cn4cc(C)nc4c(Oc4ccccc4)n3)c2n1 [Compound 566, 2-ethyl-N-{2-methyl-8-phenoxyimidazo[1,2-a]pyrazin-6-yl}-4-(piperazin-1-yl) indazole-7-carboxamide] | 1000 to 10000 |  |
| 1000 to 10000 nM | 1000 to 10000 | Cc1cn2cc(NC(=O)c3ccc(N4CC[C@@H](NC56CC(C5)C6)C4)c4cn(C)nc34)cc(F)c2n1 [Compound 568, 4-[(3R)-3-{bicyclo[1.1.1]pentan-1-ylamino}pyrrolidin-1-yl]-N-{8-fluoro-2-methylimidazo[1,2-a]pyridin-6-yl}-2-methylindazole-7-carboxamide] | 1000 to 10000 |  |
| < 100 nM | > 10000 | CCn1cc2c(N3CCC(NC4CC4)C3)cc(F)c(C(=O)Nc3cc(F)c4nc(C)cn4c3)c2n1 (stereo not shown) [Compound 569, 4-[3-(cyclopropylamino)pyrrolidin-1-yl]-2-ethyl-6-fluoro-N-{8-fluoro-2-methylimidazo[1,2-a]pyridin-6-yl}indazole-7-carboxamide] | 1000 to 10000 |  |

| SMILES | IC50 (MYB) | IC50 (HTT mRNA; 24 h) [nM] | AC50 (HTT mRNA) [nM] | IC50 (HTT mRNA) [nM] |
| --- | --- | --- | --- | --- |
| Cc1cn2cc(NC(=O)c3ccc(N4CC5NC5C4)c4cn(C)nc34)cc(F)c2n1 (stereo not shown) [Compound 563, 4-{3,6-diazabicyclo[3.1.0]hexan-3-yl}-N-{8-fluoro-2-methylimidazo[1,2-a]pyridin-6-yl}-2-methylindazole-7-carboxamide] | < 100 nM |  | 100 to 1000 | 100 to 1000 |
| Cc1cn2cc(NC(=O)c3ccc(N4C5CNCC54)c4cn(C)nc34)cc(F)c2n1 (stereo not shown) [Compound 564, 4-{3,6-diazabicyclo[3.1.0]hexan-6-yl}-N-{8-fluoro-2-methylimidazo[1,2-a]pyridin-6-yl}-2-methylindazole-7-carboxamide] | 100 to 1000 nM |  | 100 to 1000 | 100 to 1000 |
